Results from the NIST ThermoML archive (doi:10.1021/je049960h).

Assay: xn = mol fraction of the nth substance listed
Conditions: 101.3 kPa, Liquid; for viscosity: Capillary tube (Ostwald / Ubbelohde) method; for mass density: Pycnometric method; for thermal conductivity: Hot wire method

CC(O)CO (centres undefined) [1,2-propanediol] + O
Conditions	mass density [kg/m3]	thermal conductivity [W/m/K]	viscosity [mPa·s]
296.65 K, x1 = 0.25	1040	–	7.39
296.8 K, x1 = 0.75	1038	–	32.4
297.05 K, x1 = 0.5	1042	–	17.5
298.5 K, x1 = 0.75	–	0.212	–
298.9 K, x1 = 0.5	–	0.243	–
299.6 K, x1 = 0.25	–	0.322	–
313.05 K, x1 = 0.25	1028	–	3.9
313.05 K, x1 = 0.5	1029	–	8.47
313.05 K, x1 = 0.75	1026	–	14.4
322.1 K, x1 = 0.25	–	0.337	–
323.7 K, x1 = 0.75	–	0.214	–
324.2 K, x1 = 0.5	–	0.25	–
333.1 K, x1 = 0.25	1013	–	2.12
333.1 K, x1 = 0.5	1013	–	4.14
333.1 K, x1 = 0.75	1010	–	6.46
347.2 K, x1 = 0.25	–	0.348	–
348.2 K, x1 = 0.75	–	0.215	–
349.1 K, x1 = 0.5	–	0.254	–
353.05 K, x1 = 0.25	996.5	–	1.32
353.05 K, x1 = 0.5	996.8	–	–
353.05 K, x1 = 0.75	993.8	–	3.45
353.1 K, x1 = 0.5	–	–	2.36
363.3 K, x1 = 0.25	988	–	1.09
363.35 K, x1 = 0.75	985.1	–	2.66
363.4 K, x1 = 0.5	987.9	–	1.84
372.1 K, x1 = 0.25	–	0.353	–
372.1 K, x1 = 0.5	–	0.255	–
372.8 K, x1 = 0.75	–	0.215	–
373.45 K, x1 = 0.25	979.3	–	0.915
378.35 K, x1 = 0.75	971.6	–	1.87
381.55 K, x1 = 0.25	971.3	–	–
383.5 K, x1 = 0.5	970.3	–	1.22
384.15 K, x1 = 0.25	–	–	0.778
388.5 K, x1 = 0.75	963.2	–	1.52
390.55 K, x1 = 0.25	963.4	–	–
394.55 K, x1 = 0.25	–	–	0.657
395.75 K, x1 = 0.5	958.1	–	–
396 K, x1 = 0.75	–	0.214	–
396.4 K, x1 = 0.25	–	0.353	–
397.1 K, x1 = 0.5	–	0.255	–
398.3 K, x1 = 0.75	954.2	–	1.27
398.75 K, x1 = 0.5	–	–	0.952
407.45 K, x1 = 0.5	947.1	–	–
407.75 K, x1 = 0.25	947.5	–	–
408.15 K, x1 = 0.75	944.7	–	1.08
411.45 K, x1 = 0.5	–	–	0.793
411.75 K, x1 = 0.25	–	–	0.525
411.75 K, x1 = 0.75	940.7	–	–
420.2 K, x1 = 0.5	–	0.253	–
420.4 K, x1 = 0.25	–	0.347	–
420.8 K, x1 = 0.75	–	0.212	–
424.55 K, x1 = 0.25	930.2	–	–
424.95 K, x1 = 0.5	929.6	–	–
428.15 K, x1 = 0.75	924.7	–	–
428.95 K, x1 = 0.5	–	–	0.618
429.55 K, x1 = 0.25	–	–	0.426
439.95 K, x1 = 0.5	914.7	–	–
440.4 K, x1 = 0.25	–	0.338	–
440.8 K, x1 = 0.5	–	0.249	–
441.45 K, x1 = 0.75	912.7	–	–
442 K, x1 = 0.75	–	0.21	–
443.95 K, x1 = 0.5	–	–	0.517
444.55 K, x1 = 0.25	908.3	–	–
449.55 K, x1 = 0.25	–	–	0.344
